Results published in patent publication US6342522B1, “Microbiocidal compositions” (priority 1998, dated 2002).
Where “and” joins values, the source holds several entries; their conditions need not be identical. Identical values can stand only once.

Columns and labels:
Assay in all cases: MIC, two-fold serial dilutions in Malt Agar, synergism by Kull method
Type in all cases: cell-based
Penicillium sp. = test system: Penicillium sp.
Procedure: (§1) Each test tube was inoculated to make about 5×10^5 fungi per mil. The lowest concentrations of each compound or mixtures to inhibit visible growth (turbidity) at 30° C. for the fungi for 7 days were taken as the minimum inhibitory concentration (MIC). The MIC were taken as end points of activity. End points for the mixtures of compound A (Guanadine component) and Compound B (second Component microbiocide) were then compared with the end points for the guanadine component A alone and compound B alone. Synergism was determined by a commonly used and accepted method described by Kull, F. C.; Eisman, P. C.; Sylwestrowicz, H. D. and Mayer, R. L. in Applied Microbiology 9:538-541 (1961) using the ratio determined by Qa/QA+Qb/QB==Synergy Index (SI) wherein:
(§2) QA=concentration of compound A in parts per million (ppm), acting alone, which produced an end point.
(§3) Qa=concentration of compound A in ppm, in the mixture which produced an end point.
(§4) QB=concentration of compound B in ppm, acting alone which produced an end point.
(§5) Qb=concentration of compound B in ppm, in the mixture which produced an end point.
(§6) When the sum of Qa/QA and Qb/QB is greater than one, antagonism is indicated.
(§7) The MIC values of each compound tested alone (QA or QB) are end-point activities except where the value is expressed as […]. In these cases, the end-point activity was not seen at the highest tested concentration. For purpose of calculation of the synergy index and for operational definition of MIC, the reported value could be an underestimate of the true MIC; thus the true synergy index could be even lower.

Coriolus versicolor = test system: Coriolus versicolor
Procedure: as §1, §2, §3, §4, §5, §6, §7

Diplodia sp. = details: 30° C., 7 days
Procedure: as §1, §2, §3, §4, §5, §6, §7

Tyromyces palustris = details: 30° C., 7 days
Procedure: as §1, §2, §3, §4, §5, §6, §7

Alternaria sp = test system: Alternaria sp
Procedure: as §1, §2, §3, §4, §5, §6, §7

Ophiostoma sp. = test system: Ophiostoma sp.
Procedure: as §1, §2, §3, §4, §5, §6, §7

3-iodo-2-propynylbutyl carbamate [Iodocarb]
QB, end-point activity (MIC) of compound B acting alone (Penicillium sp.; Penicillium sp, 30° C., 7 days): 4 ppm
QB, end-point activity (MIC) of compound B acting alone (Coriolus versicolor; c versicolor, 30° C., 7 days): 16 ppm

N=C(N)NCCCCCCCCNCCCCCCCCNC(=N)N [Guazatine, 1,1-iminodi(octamethylene)diguanidine]
QA, end-point activity (MIC) of compound A acting alone (Diplodia sp.): 64 ppm
QA, end-point activity (MIC) of compound A acting alone (Penicillium sp.; Penicillium sp, 30° C., 7 days): 128 ppm
QA, end-point activity (MIC) of compound A acting alone (Tyromyces palustris; T palustri): 128 ppm
QA, end-point activity (MIC) of compound A acting alone (Alternaria sp; Alternaria sp, 30° C., 7 days): 32 ppm
QA, end-point activity (MIC) of compound A acting alone (Coriolus versicolor; c versicolor, 30° C., 7 days): 32 ppm and 64 ppm
QA, end-point activity (MIC) of compound A acting alone (Ophiostoma sp.; Ophiosroma sp, 30° C., 7 days): 1 ppm

CCCN(CCOc1c(Cl)cc(Cl)cc1Cl)C(=O)n1ccnc1 [Prochloraz, N-propyl-N-(2-(2,4,6-trichlorophenoxy)ethyl)-imidazole-1-carboximide]
MIC (Penicillium sp.; Penicillium, 168 h, read-out: QB, end-point activity (MIC) of compound B acting alone): 32 mg/L
MIC (Tyromyces palustris; 168 h, read-out: QB, end-point activity (MIC) of compound B acting alone, T palustri): 64 mg/L
QB, end-point activity (MIC) of compound B acting alone (Tyromyces palustris; T palustri): 128 ppm
MIC (Alternaria sp; Alternaria, 168 h, read-out: QB, end-point activity (MIC) of compound B acting alone): 4 mg/L
MIC (Coriolus versicolor; Trametes versicolor, 168 h, read-out: QB, end-point activity (MIC) of compound B acting alone): 4 mg/L
MIC (Ophiostoma sp.; 168 h, read-out: QB, end-point activity (MIC) of compound B acting alone): 2 mg/L
